Laboratory results taken from article PMC10829696, “Identification, expression profiles, and binding properties of chemosensory protein 18 in Plutella xylostella (Lepidoptera: Plutellidae)” (Journal of Insect Science, 2024).
Read-outs that look alike come from different tables or passages of the source.

Columns and labels:
PxylCSP18 [1] = target: T1, PxylCSP18 (Plutella xylostella, UniProt A0ABQ7Q8H2, Q80P); test: Titration of PxylCSP18 with fluorescent probe 1-NPN (Scatchard plot); format: binding; conditions: 1 µM protein in 20 mM Tris–HCl pH 7.4, 1-NPN 1 to 17 µM, Scatchard plots; read-out: dissociation constant (K1-NPN)
T1 sequence (A0ABQ7Q8H2 entry or part of it Q80P): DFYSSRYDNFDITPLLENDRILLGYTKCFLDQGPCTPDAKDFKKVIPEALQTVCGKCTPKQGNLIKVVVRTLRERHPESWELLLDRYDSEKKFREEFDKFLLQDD
Protocol: The fluorescence competitive binding assays were performed as described previously ([Fu et al. 2020], [Hua et al. 2021]) with some modifications. Briefly, the emission spectra of the fluorescent probe, N-phenyl-1-naphthylamine (1-NPN, Sigma-Aldrich, USA), were recorded from 350 to 600 nm with 5 nm width of the emission slits and the excitation wavelength was 337 nm. To measure the affinity of 1-NPN to PxylCSP18, 1 µM protein in 20 mM Tris–HCl buffer (pH 7.4) was titrated with 1-NPN to final concentrations ranging from 1 to 17 µM in 1 cm light path quartz cuvette. After incubation for 3 min, the fluorescence intensity for each test was detected on an RF-5301 fluorescence spectrophotometer (Shimadzu, Japan). The average data of the recorded fluorescence intensity at the maximum emission wavelength were linearized using the Scatchard equation, and the dissociation constants for 1-NPN were then calculated ([Sideris et al. 1992], [Hua et al. 2021]). Sixteen ligands, including 3 sex pheromone components ((Z)-11-hexadecenal, (Z)-11-hexadecenyl acetate, and (Z)-11-hexadecenyl alcolol) and some host volatiles (terpene, ketone, aldehyde, alcohol, and ester volatiles), were detected the affinities of PxylCSP18. The final concentrations for each ligand ranging from 1 to 17 µM were added into the mixed solution of 1-NPN probe (1 µM) and PxylCSP18 (1 µM). […]

PxylCSP18 [2] = target: T1, PxylCSP18; test: Fluorescence competitive binding assays with 1-NPN as probe; conditions: for Ki: Ki = [IC50]/(1 + [1-NPN]/K1-NPN)
Protocol: The coding region of mature PxylCSP18 was cloned from the synthesized cDNA with the specific primers, in which an EcoR V and an Xho I restriction sites were introduced (Table 1). The amplified product was cloned into the pET-32a vector (Novagen, USA), followed by transformation into the competent E. coli BL21 (DE3) (Tiangen, China). The expression of PxylCSP18 in the bacteria was induced by 0.6 mM isopropyl-beta-D-thiogalactopyranoside (IPTG) overnight. Subsequently, the bacterial cells were collected through centrifugation and resuspended into phosphate-buffered saline (PBS) solution, then homogenized through sonication on ice using an ultrasonic processor (Sonics Vibra-Cell, USA). PxylCSP18 was purified from the soluble faction using a Ni^2+-NTA column (Roche, Switzerland) through a stepwise elution with 20, 50, 100, 150, and 500 mM imidazole in PBS. […] Finally, the PxylCSP18 was concentrated through ultrafiltration using a centrifugal device (3 kDa, Merck Millipore, USA), and the concentration was determined using the BCA Protein Assay Kit (Sangon, China). The purified recombinant PxylCSP18 was verified by peptide mass fingerprinting (Sangon Biotech, China).
Briefly, the emission spectra of the fluorescent probe, N-phenyl-1-naphthylamine (1-NPN, Sigma-Aldrich, USA), were recorded from 350 to 600 nm with 5 nm width of the emission slits and the excitation wavelength was 337 nm. […] Sixteen ligands, including 3 sex pheromone components ((Z)-11-hexadecenal, (Z)-11-hexadecenyl acetate, and (Z)-11-hexadecenyl alcolol) and some host volatiles (terpene, ketone, aldehyde, alcohol, and ester volatiles), were detected the affinities of PxylCSP18. […] The acquired data were calculated from the Scatchard plots for dissociation constants (Kd) and the curves, assuming PxylCSP18 was active completely and bound to the ligands in a 1:1 ratio at saturation.

PxylCSP11 = test system: PxylCSP11; parameters: method as in Fu et al. 2020; conditions: ref Fu et al. 2020; cited from earlier work
P. xylostella adults = test: Y-tube olfactometer bioassays after RNAi knockdown of PxylCSP18; format: in vivo, Plutella xylostella; conditions: day-2 unmated, 10 μg/μl in paraffin oil, dsCSP18 vs dsGFP
Protocol: The pupae the day before eclosion were collected and used for RNA interference. The pupae were anesthetized on ice and then injected with 1 μl of dsRNA (10 μg/μl) at the dorsal site of the abdomen using a Nanoject III micro-injector (Drummond Scientific, Broomall, PA) equipped with glass capillaries prepared using a P-97 micropipette puller (Sutter Instrument Co., Novato, CA). The antennae of day-2 unmated female and male adults were collected to detect the efficiency of RNAi-mediated knockdown of PxylCSP18 through […]. Three independent biological replicates were performed.
The responses of the day-2 unmated female and male adults to the volatile compounds were performed using a glass Y-tube olfactometer with a central glass tube (5 cm long × 2.5 cm ID) and 2 lateral glass arms (15 cm long × 2.5 cm ID) with a 75° inside angle as described previously ([Yan et al. 2023]), with some modifications. Before bioassays, all glasswares were cleaned and washed with absolute alcohol and dried at 100 °C for 5 min. A moistened and activated charcoal-filtered airflow (350 mL/min) was pumped into each source container using an atmospheric sampling instrument (QC-1S, Beijing Institute of Labor Protection Science, Beijing, China). The behavioral response of male and female adults of P. xylostella to trans-2-hexen-1-ol, isopropyl isothiocyanate, myrcene, linalool were then observed. Each component was diluted with paraffin oil to 10 μg/μl. For each chemical, an aliquot of 10 μl was applied to a strip of filter paper (0.5 × 5 cm) and placed in 1 source container. A filter paper strip loaded with the same volume of paraffin oil and placed in the second source container was used as a control. Each test male or female moth was released at the entrance of the central glass tube of the Y-tube olfactometer and observed for 5 min. […] The positions of the arms were reversed after 5 insects to avoid positional bias. The experimental device was cleaned after every 10 insects by washing it with absolute acetone and followed by heating at 100 °C for 5 min. Each concentration of compound stimulus was tested with 30 insects, which successfully made a “choice.” The choice index was calculated as the number of responses of moths to […] divided by the total number of test moths.

P. xylostella = conditions: ref Song et al. 2022; cited from earlier work
PxylCSP1 = test system: PxylCSP1; parameters: method as in Liu et al. 2010; conditions: ref Liu et al. 2010; cited from earlier work
[3] = 1-NPN 1 µM, PxylCSP18 1 µM, ligand 1 to 17 µM, concentration of ligand halving the initial fluorescence, N.D. = no significant binding detected, read-out: IC50
[4] = 1-NPN 1 µM, PxylCSP18 1 µM, N.D. = no significant binding detected
[5] = 1-NPN 1 µM, PxylCSP18 1 µM, ligand 1 to 17 µM

For `c1ccc(Nc2cccc3ccccc23)cc1` [1-NPN, N-phenyl-1-naphthylamine], the Kd (PxylCSP18 [1]) was 9.85 µM.

In the case of `CCCCCCCCC=O` [1-Nonanal], the IC50 (PxylCSP18 [2]) is reported as 7.94 µM.

For `C=CC(O)CC` (stereo not drawn) [1-Penten-3-ol], the IC50 (PxylCSP18 [2]) was 7.17 µM.

For `CCCC(C)CC(C)C` (stereo not drawn) [2,4-dimethylheptane], the “affinity of PxylCSP11” value (PxylCSP11) is listed as “good affinities”.

For `CCC/C=C/CO` [(E)-2-Hexenal-1-ol], the IC50 (PxylCSP18 [2]; [3]) was 7.66 µM, the Ki (PxylCSP18 [2]; [4]) was 6.11 µM and the “attractive effects to P. xylostella female adults after knocked down the expression of PxylCSP18” value (P. xylostella adults) was “decreased inconspicuously”. For the same compound, the “attractive effects to P. xylostella male adults after knocked down the expression of PxylCSP18” value (P. xylostella adults) was “significantly decreased”.

For `CC/C=C\CCOC(C)=O` [(Z)-3-Hexenyl acetate], the IC50 (PxylCSP18 [2]) was 9.09 µM.

In the case of `CCCC/C=C\CCCCCCCCCC=O` [(Z)-11-hexadecenal], the “binding affinity of PxylCSP18 to ligand (in words)” value (from here on “binding affinity of PxylCSP18”) (PxylCSP18 [2]; [5]) is reported as “no significant binding affinity”.

For `CCCC/C=C\CCCCCCCCCCOC(C)=O` [(Z)-11-hexadecenyl acetate], the “binding affinity of PxylCSP18” value (PxylCSP18 [2]; [5]) is given as “no significant binding affinity” and the “affinity of PxylCSP11” value (PxylCSP11) is given as “good affinities”.

With `CCCC/C=C\CCCCCCCCCCO` [(Z)-11-hexadecenyl alcolol] the “binding affinity of PxylCSP18” value (PxylCSP18 [2]; [5]) was “no significant binding affinity”.

In the case of `C=CCN=C=S` [Allyl isothiocyanate], the IC50 (PxylCSP18 [2]) is given as 7.23 µM and the “affinity of PxylCSP11” value (PxylCSP11) is given as “good affinities”.

`CCCCN=C=S` [Buty1 isothiocyanate] gave an IC50 (PxylCSP18 [2]) of 8.86 µM.

For `CCCCCC=O` [Caproldehyde], the IC50 (PxylCSP18 [2]; [3]) was 7.49 µM and the Ki (PxylCSP18 [2]; [4]) was 5.98 µM.

With `CC(C)N=C=S` [Isopropyl isothiocyanate] the IC50 (PxylCSP18 [2]) was 8.17 µM, the “attractive effects to P. xylostella female adults after knocked down the expression of PxylCSP18” value (P. xylostella adults) was “significantly weakened” and the “attractive effects to P. xylostella male adults after knocked down the expression of PxylCSP18” value (P. xylostella adults) was “significantly decreased”.

`C=C(C)[C@H]1CC=C(C)CC1` [Limonene] gave an IC50 (PxylCSP18 [2]; [3]) of 1.85 µM and a Ki (PxylCSP18 [2]; [4]) of 1.48 µM.

For `C=CC(C)(O)CCC=C(C)C` (stereo not drawn) [Linalool], the IC50 (PxylCSP18 [2]) was 7.61 µM, the “repellent effects to P. xylostella female adults after knocked down the expression of PxylCSP18” value (P. xylostella adults) was “significantly weakened” and the “repellent effects to P. xylostella male adults after knocked down the expression of PxylCSP18” value (P. xylostella adults) was “decreased inconspicuously”.

With `C=CC(=C)CCC=C(C)C` [Myrcene] the IC50 (PxylCSP18 [2]) was 1.34 µM, the “repellent effects to P. xylostella female adults after knocked down the expression of PxylCSP18” value (P. xylostella adults) was “decreased inconspicuously” and the “repellent effects to P. xylostella male adults after knocked down the expression of PxylCSP18” value (P. xylostella adults) was “decreased inconspicuously”. For the same compound, the “behavioural effect on P. xylostella” value (P. xylostella) was “repellent”.

For `CC1(C)[C@H]2O[C@H]2[C@H]2[C@](C)(O)[C@@H]3CC[C@@H]4[C@@H](O)[C@@]3(C[C@@H](O)[C@@]21O)C[C@@]4(C)O` [Rhodojaponin-III], the “ability of PxylCSP1 to bind” value (PxylCSP1) is given as “remarkable ability to bind”.

For `OCCc1ccccc1` [phenethyl alcohol], the “affinity of PxylCSP11” value (PxylCSP11) is listed as “good affinities”.

For `S=C=NCCc1ccccc1` [phenethyl isothiocyanate], the “affinity of PxylCSP11” value (PxylCSP11) is given as “good affinities”.

Work on `CC(=O)/C=C/C1C(C)=CCCC1(C)C` (stereo not drawn) [α-Ionone] yielded an IC50 (PxylCSP18 [2]) of 4.19 µM.

For `CC1=CC=C(C(C)C)CC1` [α-Terpinene], the IC50 (PxylCSP18 [2]) is given as 1.29 µM and the “affinity of PxylCSP11” value (PxylCSP11) is given as “good affinities”.

For `CC1=CC[C@@H](C(C)(C)O)CC1` [α-terpineol], the “affinity of PxylCSP11” value (PxylCSP11) is listed as “good affinities”.

For `CC1=CCC(C(C)C)=CC1` [γ-Terpinene], the IC50 (PxylCSP18 [2]) is listed as 1.21 µM and the “behavioural effect on P. xylostella” value (P. xylostella) is listed as “repellent”.
